Data: patent US8785488B2 (Exelixis Patent Company LLC, priority 2009, dated 2014)

Target: T1, human TGR5 (h-TGR5) (Homo sapiens, UniProt Q8TDU6)
T1 construct: expressed in transfected cells
T1 sequence (Q8TDU6 1-330): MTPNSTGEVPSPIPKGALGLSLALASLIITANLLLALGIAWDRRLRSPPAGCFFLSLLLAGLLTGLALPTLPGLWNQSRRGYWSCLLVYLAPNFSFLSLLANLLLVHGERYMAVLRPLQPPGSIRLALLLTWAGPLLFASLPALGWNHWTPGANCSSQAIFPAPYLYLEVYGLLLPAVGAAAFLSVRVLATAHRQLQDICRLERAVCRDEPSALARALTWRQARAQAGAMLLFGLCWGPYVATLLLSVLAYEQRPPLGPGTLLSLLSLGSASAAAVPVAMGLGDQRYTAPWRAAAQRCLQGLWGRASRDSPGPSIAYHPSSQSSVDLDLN
Assay: TGR5/CRE-Luciferiase Assay (HEK 293 hTGR5/CRE-Luc cells)
Assay type: cell-based
Details: h-TGR5 CRE-Luc EC50, Table 1; read-out: CRE-Luc (EC50)
Description: Compounds were serially diluted in DMEM containing 5% DMSO and 5 μL of compound or media alone was transferred to each well and plates were incubated for 6 hours. Following incubation, 30 μL of lysis/luciferase buffer was added to each well. The luciferase activity was then measured on the EnVision™ plate reader and the dose response data was analyzed using ActivityBase.
In the following tables, EC50 values determined according to the TGR5 cAMP Assay described herein (cAMP); EC50 values determined according to the TGR5/CRE-Luciferiase Assay described herein (CRE-Luc). […] The following compounds in Tables 1 and 2 were made by using procedures described in the above Schemes and Examples, and, where applicable, by making any necessary substitutions of known materials that one skilled in the art would ordinarily understand how to do.

Compound	EC50 [nM]
CC(C)(O)c1cc(CSc2ncc(C(C)(C)c3ccc(Cl)c(Cl)c3)n2-c2ccc(F)cc2)ccc1Cl [2-{2-chloro-5-[({5-[1-(3,4-dichlorophenyl)-1-methylethyl]-1-(4-fluorophenyl)-1H-imidazol-2-yl}thio)methyl]phenyl}propan-2-ol]	100 to 1000
CC(C)(C(=O)O)c1ccc(CSc2ncc(C(C)(C)c3ccc(Cl)c(Cl)c3)n2-c2ccc(F)cc2)c(F)c1 [2-{4-[({5-[1-(3,4-dichlorophenyl)-1-methylethyl]-1-(4-fluorophenyl)-1H-imidazol-2-yl}thio)methyl]-3-fluorophenyl}-2-methylpropanoic acid]	100 to 1000
CC(C)(O)c1ccc(CSc2ncc(C(C)(C)c3ccc(Cl)c(Cl)c3)n2-c2ccc(F)cc2)c(F)c1 [2-{4-[({5-[1-(3,4-dichlorophenyl)-1-methylethyl]-1-(4-fluorophenyl)-1H-imidazol-2-yl}thio)methyl]-3-fluorophenyl}propan-2-ol]	100 to 1000
CC(C)(C(=O)O)c1cc(CSc2ncc(C(C)(C)c3ccc(Cl)c(Cl)c3)n2-c2ccc(F)cc2)ccc1F [2-{5-[({5-[1-(3,4-dichlorophenyl)-1-methylethyl]-1-(4-fluorophenyl)-1H-imidazol-2-yl}thio)methyl]-2-fluorophenyl}-2-methylpropanoic acid]	1000 to 10000
CC(C)(O)c1cc(CSc2ncc(C(C)(C)c3ccc(Cl)c(Cl)c3)n2-c2ccc(F)cc2)ccc1F [2-{5-[({5-[1-(3,4-dichlorophenyl)-1-methylethyl]-1-(4-fluorophenyl)-1H-imidazol-2-yl}thio)methyl]-2-fluorophenyl}propan-2-ol]	100 to 1000
CC(C)(c1ccc(Cl)c(Cl)c1)c1cnc(S(=O)(=O)C(C)(C)c2c(F)cccc2Cl)n1-c1ccc(F)cc1 [2-{[1-(2-chloro-6-fluorophenyl)-1-methylethyl]sulfonyl}-5-[1-(3,4-dichlorophenyl)-1-methylethyl]-1-(4-fluorophenyl)-1H-imidazole]	100 to 1000
CC(C)(c1ccc(Cl)c(Cl)c1)c1cnc(S(=O)(=O)Cc2ccc(F)cc2Cl)n1-c1ccc(F)cc1 [2-{[(2-chloro-4-fluorophenyl)methyl]sulfonyl}-5-[1-(3,4-dichlorophenyl)-1-methylethyl]-1-(4-fluorophenyl)-1H-imidazole]	1000 to 10000
CC(C)(c1ccc(OC(F)(F)F)c(Cl)c1)c1cnc(SCc2ccc(F)cc2Cl)n1-c1ccc(F)cc1 [2-{[(2-chloro-4-fluorophenyl)methyl]thio}-5-(1-{3-chloro-4-[(trifluoromethyl)oxy]phenyl}-1-methylethyl)-1-(4-fluorophenyl)-1H-imidazole]	1000 to 10000
CC(C)(c1ccc2c(c1)OCCO2)c1cnc(SCc2ccc(F)cc2Cl)n1-c1ccc(F)cc1 [2-{[(2-chloro-4-fluorophenyl)methyl]thio}-5-[1-(2,3-dihydro-1,4-benzodioxin-6-yl)-1-methylethyl]-1-(4-fluorophenyl)-1H-imidazole]	< 100
CC(C)(c1ccc(Cl)c(Cl)c1)c1cnc(SCc2ccc(F)cc2Cl)n1-c1ccc(F)cc1 [2-{[(2-chloro-4-fluorophenyl)methyl]thio}-5-[1-(3,4-dichlorophenyl)-1-methylethyl]-1-(4-fluorophenyl)-1H-imidazole]	100 to 1000
Fc1ccc(-n2c(Cc3ccc(F)c(F)c3)cnc2SCc2ccc(F)cc2Cl)cc1 [2-{[(2-chloro-4-fluorophenyl)methyl]thio}-5-[(3,4-difluorophenyl)methyl]-1-(4-fluorophenyl)-1H-imidazole]	100 to 1000
COc1ccc(C(C)(C)c2cnc(SCc3ccc(F)cc3Cl)n2-c2ccc(F)cc2)cc1Cl [2-{[(2-chloro-4-fluorophenyl)methyl]thio}-5-{1-[3-chloro-4-(methyloxy)phenyl]-1-methylethyl}-1-(4-fluorophenyl)-1H-imidazole]	< 100
CC(C)(c1ccc(Cl)c(Cl)c1)c1cnc(COc2ccc(F)cc2Cl)n1-c1ccc(F)cc1 [2-{[(2-chloro-4-fluorophenyl)oxy]methyl}-5-[1-(3,4-dichlorophenyl)-1-methylethyl]-1-(4-fluorophenyl)-1H-imidazole]	1000 to 10000
CC(C)(c1ccc(Cl)c(Cl)c1)c1cnc(CS(=O)(=O)c2ccc(F)cc2Cl)n1-c1ccc(F)cc1 [2-{[(2-chloro-4-fluorophenyl)sulfonyl]methyl}-5-[1-(3,4-dichlorophenyl)-1-methylethyl]-1-(4-fluorophenyl)-1H-imidazole]	1000 to 10000
CC(C)(c1ccc(Cl)c(Cl)c1)c1cnc(S(=O)(=O)Cc2c(F)cccc2Cl)n1-c1ccc(Cl)c(Cl)c1 [2-{[(2-chloro-6-fluorophenyl)methyl]sulfonyl}-1-(3,4-dichlorophenyl)-5-[1-(3,4-dichlorophenyl)-1-methylethyl]-1H-imidazole]	1000 to 10000
CC(C)(c1ccc(Cl)c(Cl)c1)c1cnc(S(=O)(=O)Cc2c(F)cccc2Cl)n1-c1ccc(F)cc1 [2-{[(2-chloro-6-fluorophenyl)methyl]sulfonyl}-5-[1-(3,4-dichlorophenyl)-1-methylethyl]-1-(4-fluorophenyl)-1H-imidazole]	100 to 1000
CC(C)(c1ccc(Cl)c(Cl)c1)c1cnc(SCc2c(F)cccc2Cl)n1-c1ccc(Cl)c(Cl)c1 [2-{[(2-chloro-6-fluorophenyl)methyl]thio)-1-(3,4-dichlorophenyl)-5-[1-(3,4-dichlorophenyl)-1-methylethyl]-1H-imidazole]	100 to 1000

The remaining lines, values ahead:

EC50 [nM]	Compound
1000 to 10000	CC(Sc1ccc(F)cc1Cl)c1ncc(C(C)(C)c2ccc(Cl)c(Cl)c2)n1-c1ccc(F)cc1 (centres unmarked) [2-{1-[(2-chloro-4-fluorophenyl)thio]ethyl}-5-[1-(3,4-dichlorophenyl)-1-methylethyl]-1-(4-fluorophenyl)-1H-imidazole]
100 to 1000	CC(C)(O)c1cccc(F)c1CSc1ncc(C(C)(C)c2ccc(Cl)c(Cl)c2)n1-c1ccc(F)cc1 [2-{2-[({5-[1-(3,4-dichlorophenyl)-1-methylethyl]-1-(4-fluorophenyl)-1H-imidazol-2-yl}thio)methyl]-3-fluorophenyl}propan-2-ol]
1000 to 10000	CC(C)(C(=O)O)c1ccc(F)c(CSc2ncc(C(C)(C)c3ccc(Cl)c(Cl)c3)n2-c2ccc(F)cc2)c1 [2-{3-[({5-[1-(3,4-dichlorophenyl)-1-methylethyl]-1-(4-fluorophenyl)-1H-imidazol-2-yl}thio)methyl]-4-fluorophenyl}-2-methylpropanoic acid]
100 to 1000	CC(C)(O)c1ccc(CSc2ncc(C(C)(C)c3ccc(Cl)c(Cl)c3)n2-c2ccc(F)cc2)c(Cl)c1 [2-{3-chloro-4-[({5-[1-(3,4-dichlorophenyl)-1-methylethyl]-1-(4-fluorophenyl)-1H-imidazol-2-yl}thio)methyl]phenyl}propan-2-ol]
1000 to 10000	CC(C)(Oc1cc(-n2c(C(C)(C)c3ccc(Cl)c(Cl)c3)cnc2SCc2ccc(F)cc2Cl)ccc1F)C(=O)O [2-{[5-(2-{[(2-chloro-4-fluorophenyl)methyl]thio}-5-[1-(3,4-dichlorophenyl)-1-methylethyl]-1H-imidazol-1-yl)-2-fluorophenyl]oxy}-2-methylpropanoic acid]
1000 to 10000	CC(C)(c1ccc(F)c(F)c1)c1cnc(S(=O)(=O)Cc2ccc(F)cc2Cl)n1-c1ccc(F)cc1 [2-{[(2-chloro-4-fluorophenyl)methyl]sulfonyl}-5-[1-(3,4-difluorophenyl)-1-methylethyl]-1-(4-fluorophenyl)-1H-imidazole]
100 to 1000	CC(C)(c1ccc(Cl)c(Cl)c1)c1cnc(SCc2ccc(F)cc2Cl)n1-c1ccc(F)c(F)c1 [2-{[(2-chloro-4-fluorophenyl)methyl]thio}-5-[1-(3,4-dichlorophenyl)-1-methylethyl]-1-(3,4-difluorophenyl)-1H-imidazole]
100 to 1000	CC(C)(c1ccc(Cl)c(Cl)c1)c1cnc(SCc2ccc(F)cc2Cl)n1-c1cc(F)cc(F)c1 [2-{[(2-chloro-4-fluorophenyl)methyl]thio}-5-[1-(3,4-dichlorophenyl)-1-methylethyl]-1-(3,5-difluorophenyl)-1H-imidazole]
100 to 1000	COc1cc(F)ccc1-n1c(C(C)(C)c2ccc(Cl)c(Cl)c2)cnc1SCc1ccc(F)cc1Cl [2-{[(2-chloro-4-fluorophenyl)methyl]thio}-5-[1-(3,4-dichlorophenyl)-1-methylethyl]-1-[4-fluoro-2-(methyloxy)phenyl]-1H-imidazole]
1000 to 10000	CC(C)(c1ccc(Cl)c(Cl)c1)c1cnc(SCc2ccc(F)cc2Cl)n1-c1ccc(F)c(C(F)(F)F)c1 [2-{[(2-chloro-4-fluorophenyl)methyl]thio}-5-[1-(3,4-dichlorophenyl)-1-methylethyl]-1-[4-fluoro-3-(trifluoromethyl)phenyl]-1H-imidazole]
100 to 1000	CC(C)(c1ccc(F)c(F)c1)c1cnc(SCc2ccc(F)cc2Cl)n1-c1ccc(F)cc1 [2-{[(2-chloro-4-fluorophenyl)methyl]thio}-5-[1-(3,4-difluorophenyl)-1-methylethyl]-1-(4-fluorophenyl)-1H-imidazole]
100 to 1000	CC(C)(c1ccc(Cl)c(Cl)c1)c1cnc(S(=O)(=O)Cc2c(F)cccc2Cl)n1-c1ccc(F)cc1F [2-{[(2-chloro-6-fluorophenyl)methyl]sulfonyl}-5-[1-(3,4-dichlorophenyl)-1-methylethyl]-1-(2,4-difluorophenyl)-1H-imidazole]
